Laboratory results from PMC9875641, “Ophthalmic Solution of Smart Supramolecular Peptides to Capture Semaphorin 4D against Diabetic Retinopathy” (Advanced Science, 2022).

What was measured:
[1] = tested on: mouse brain microvascular endothelial cells (MBMEC); test: CCK-8 cytotoxicity; format: cell-based; details: CCK-8, 24 h incubation, concentrations up to 80 × 10^−6 M
Experimental: In addition, KLVFF sequence, a sheet structure with strong hydrogen‐bonding was introduced into SSPs, we could distinctly observe the secondary structure of SSPs by circular dichroism (CD) spectroscopy. […] The percentage of β‐sheet after incubation with sSema4D in SSP‐1 and SSP‐2 were 85.6% and 42.3%, respectively, indicative of a highly organized packing of NFs in SSP‐1. […] The high percentage of β‐sheet structure in NFs stabilized the formation of nanostructure networks, due to its strong hydrogen‐bonding KLVFF sequence. Moreover, we carried out the cytotoxicity of SSP‐1 and SSP‐2 by using a standard CCK‐8 (Figure 3D). […] Finally, we investigated the recognition of sSema4D and SSP‐1 and SSP‐2 by confocal laser scanning microscope (CLSM). […]
pericytes were cultured in Pericyte Medium (ScienCell, USA). bEnd.3 cells were purchased from ATCC and grown in DMEM with 10% fetal bovine serum.
Preparation method of nanoparticles. The nanomaterials FG-12 and FH-12 were added to a 1:1 mixture of propylene glycol and ethanol solution to form a 2 mM mother liquor. The mother solution was diluted in normal saline at 1:100 dilution to form a 20 μM nanoparticle solution. […]
solution was added. After 2 h incubation with CCK8 solution at 37℃ in a 5% CO2 atmosphere, the […] was evaluated by a fluorescence microplate reader (PerkinElmer, Waltham, MA, USA). real-time PCR. […]

[2] = Intraocular distribution and retention after topical instillation; format: in vivo, mouse; details: for presence (retention) in the mice vitreous humor: FITC-labeled peptide eye drops, fluorescence of vitreous humor at different time points, n = 3 (each sample from 5 mice); for intraocular distribution of fluorescence after topical instillation: FITC-labeled peptide, 10 µL eye drop once, 12 h after instillation, fluorescence and LC/MS
Experimental: To study the intraocular distribution of the FITC‐labeled SSP‐1 and SSP‐2 after topical instillation, fluorescence observation and liquid chromatography‐mass spectrometry (LC/MS) were performed on the entire eyes of mice, the frozen sections of the eyes, and their vitreous humor (Figure 7A–D). […] The topical instillation of SSP eye drop was instilled once with 10 µL before fluorescence observation. However, intraocular injection was administrated once with the maximum volume of 2 µL to avoid overdose induced high intraocular pressure due to the limited volume of the vitreous cavity. […] Next, we studied the intraocular pharmacokinetics of SSP‐1 and SSP‐2 after topical instillation. […] Moreover, we established an in vitro blood‐retina barrier (BRB) model to investigate the transferring efficiency of SSP‐1 and SSP‐2 across the posterior ocular absorption barriers. […]
Intraocular Distribution of FG/FH. Male mice (20-25 g) derived from Charles River (Beijing, China) were used in this experiment. 10 μL FITC-labeled FH or FG (dissolved in artificial tear fluid, 20 nM) were gently dripped in the conjunctival sac.
The upper and lower eyelids were massaged to make homodisperse on the eye surface. After 12h FITC-labeled FH or FG were instilled, the mice were sacrificed and the eyeballs were wash in the PBS solution. luminescence signal was detected via the In-Vivo FX PRO system (Bruker).
Statistical analysis. Statistical analysis was conducted using Graphpad Prism 8.0 software. All data were expressed by mean ± SD. Unpaired two-tailed Student’s t-test (two groups) or one-way ANOVA (more than 2 groups) was used to analyze the statistical significances of the data. Person’s correlation analysis was conducted to […]

[3] = tested on: in vitro BRB model (ARPE-19 layer and HUVEC layer)

Substance: C16‐FFVLK‐KNKAAKG [SSP-2]
- viability of MBMEC [1]: ~90%
- presence (retention) in the mice vitreous humor [2]: up to 5 days
- intraocular distribution of fluorescence after topical instillation [2]: mainly in the retina and vitreous humor
- transfer across the in vitro BRB [3]: effectively transferred across the BRB

Substance: C16‐FFVLK‐KQKRPRH [SSP-1]
- viability of MBMEC [1]: ~90%
- presence (retention) in the mice vitreous humor [2]: up to 5 days
- intraocular distribution of fluorescence after topical instillation [2]: mainly in the retina and vitreous humor
- transfer across the in vitro BRB [3]: effectively transferred across the BRB
